In brackets after ≈: the same amount, converted by molar mass.
Key:
[1] = Clearance in C57BL/6 mouse plasma at 2 mg/kg, iv; type: ADME, organism-based
[2] = Oral bioavailability in C57BL/6 mouse at 10 mg/kg; type: ADME, organism-based; settings: in vivo
[3] = Hepatic extraction ratio in C57BL/6 mouse at 2 mg/kg, iv; type: ADME, organism-based; settings: in vivo, read-out: ERH
[4] = Unbound AUC in C57BL/6 mouse brain at 10 mg/kg, po by LC-MS/MS analysis; type: ADME, organism-based; settings: in vivo
[5] = Inhibition of ROCK in rat A7R5 cells assessed as cofilin serine 3 phosphorylation incubated for 1 hr by ICW assay; settings: A7R5, 1 h
[6] = Ratio of unbound AUC in C57BL/6 mouse brain at 10 mg/kg, po to IC50 for Inhibition of ROCK in rat A7r5 cells; type: organism-based; settings: in vivo
[7] = Kinetic solubility of the compound in pH 7.4 PBS buffer incubated for 2 hrs using orbital shaker by LC-UV mass spectrometry; type: physicochemical; settings: read-out: Kinetic_solubility
[8] = Metabolic stability in mouse liver microsomes assessed as intrinsic clearance at 1 uM measured upto 40 mins in presence of NADPH by LC-MS/MS analysis; type: ADME, Microsome; settings: read-out: CLH
[9] = biological target: Rho-associated protein kinase 2 (Homo sapiens, UniProt O75116); experiment: Inhibition of recombinant N-terminal GST-tagged human ROCK2 (5 to 554 residues) expressed in baculovirus infected Sf9 cells using S6K as substrate incubated for 30 mins in presence of ATP by ADP Glo kinase assay
Chain of Rho-associated protein kinase 2 (O75116 whole entry, the tested form may be a part): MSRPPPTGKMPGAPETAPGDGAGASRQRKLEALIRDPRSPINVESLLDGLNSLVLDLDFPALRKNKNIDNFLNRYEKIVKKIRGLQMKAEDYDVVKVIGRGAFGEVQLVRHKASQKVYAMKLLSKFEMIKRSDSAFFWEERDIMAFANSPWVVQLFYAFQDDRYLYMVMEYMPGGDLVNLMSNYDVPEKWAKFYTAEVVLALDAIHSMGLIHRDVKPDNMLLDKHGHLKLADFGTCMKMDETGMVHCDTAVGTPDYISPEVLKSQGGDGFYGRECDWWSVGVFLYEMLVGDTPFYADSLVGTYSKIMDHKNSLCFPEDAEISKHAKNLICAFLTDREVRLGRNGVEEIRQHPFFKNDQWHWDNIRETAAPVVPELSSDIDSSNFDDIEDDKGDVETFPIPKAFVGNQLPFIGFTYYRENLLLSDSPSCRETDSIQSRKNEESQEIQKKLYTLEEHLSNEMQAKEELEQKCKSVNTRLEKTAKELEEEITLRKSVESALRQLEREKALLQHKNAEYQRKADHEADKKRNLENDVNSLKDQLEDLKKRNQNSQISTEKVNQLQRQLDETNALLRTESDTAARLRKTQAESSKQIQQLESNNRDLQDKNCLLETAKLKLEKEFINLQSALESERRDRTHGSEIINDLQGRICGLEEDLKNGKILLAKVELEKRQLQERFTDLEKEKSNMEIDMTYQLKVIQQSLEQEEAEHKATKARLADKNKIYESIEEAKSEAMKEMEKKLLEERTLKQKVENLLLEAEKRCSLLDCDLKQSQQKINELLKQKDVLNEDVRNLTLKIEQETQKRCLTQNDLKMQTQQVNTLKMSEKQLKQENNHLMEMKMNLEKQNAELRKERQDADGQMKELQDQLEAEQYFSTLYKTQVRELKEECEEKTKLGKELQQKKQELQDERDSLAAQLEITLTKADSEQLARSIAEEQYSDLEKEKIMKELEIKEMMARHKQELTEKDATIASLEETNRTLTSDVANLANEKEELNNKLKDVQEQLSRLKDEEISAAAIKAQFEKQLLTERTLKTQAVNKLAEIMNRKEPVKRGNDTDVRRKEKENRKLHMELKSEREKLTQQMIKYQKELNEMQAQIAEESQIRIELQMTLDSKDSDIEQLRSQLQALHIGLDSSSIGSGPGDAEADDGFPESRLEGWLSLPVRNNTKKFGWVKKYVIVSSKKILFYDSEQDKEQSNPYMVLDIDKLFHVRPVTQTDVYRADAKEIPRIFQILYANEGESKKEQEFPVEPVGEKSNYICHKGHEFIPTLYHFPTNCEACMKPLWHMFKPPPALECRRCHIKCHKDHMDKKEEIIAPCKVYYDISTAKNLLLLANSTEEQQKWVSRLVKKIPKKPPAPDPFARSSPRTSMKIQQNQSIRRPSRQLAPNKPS

[10] = Unbound AUC in C57BL/6 mouse plasma at 10 mg/kg, po by LC-MS/MS analysis; type: ADME, organism-based; settings: in vivo
[11] = Apparent permeability in MDCK-MDR1 cells at 10 uM after 1 hr by LC-MS/MS analysis; type: ADME, cell-based, Canis lupus familiaris; settings: dog
[12] = tested on: MDR1; experiment: in vitro; settings: dog, MDCK-MDR1
Description: Efflux ratio of apparent permeability across basolateral to apical side to apical to basolateral side in MDCK-MDR1 cells at 10 uM measured after 1 hr by LC-MS/MS analysis

[13] = biological target: T1, Cytochrome P450 1A2 (Homo sapiens, UniProt P05177); experiment: Time dependent inhibition of CYP1A2 in pooled human liver microsomes using […] as substrate preincubated for 30 mins in presence of NADPH followed by substrate addition and measured after 10 mins by LC-MS/MS analysis; type: ADME, Microsome
T1 sequence (P05177 whole entry): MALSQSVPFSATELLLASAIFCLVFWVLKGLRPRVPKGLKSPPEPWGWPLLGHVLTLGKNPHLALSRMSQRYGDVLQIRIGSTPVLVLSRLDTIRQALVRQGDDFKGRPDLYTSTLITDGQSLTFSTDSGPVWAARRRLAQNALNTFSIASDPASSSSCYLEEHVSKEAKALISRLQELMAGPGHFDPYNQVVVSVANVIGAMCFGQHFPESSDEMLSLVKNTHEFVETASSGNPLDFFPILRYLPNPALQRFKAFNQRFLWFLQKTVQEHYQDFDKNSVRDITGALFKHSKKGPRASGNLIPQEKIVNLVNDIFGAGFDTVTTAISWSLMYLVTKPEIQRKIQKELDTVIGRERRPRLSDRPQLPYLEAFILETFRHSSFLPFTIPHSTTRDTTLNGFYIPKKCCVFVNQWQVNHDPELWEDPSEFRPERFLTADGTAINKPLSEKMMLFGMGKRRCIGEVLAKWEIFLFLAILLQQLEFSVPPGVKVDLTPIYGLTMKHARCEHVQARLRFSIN

[14] = biological target: T2, cGMP-dependent protein kinase 1 (Homo sapiens, UniProt Q13976); experiment: Inhibition of full length recombinant N-terminal GST-tagged human PKG expressed in baculovirus infected Sf9 insect cells using RSK as substrate preincubated for 15 mins followed by substrate addition and measured after 30 mins in presence of ATP by ADP Glo kinase assay
T2 sequence (Q13976 whole entry): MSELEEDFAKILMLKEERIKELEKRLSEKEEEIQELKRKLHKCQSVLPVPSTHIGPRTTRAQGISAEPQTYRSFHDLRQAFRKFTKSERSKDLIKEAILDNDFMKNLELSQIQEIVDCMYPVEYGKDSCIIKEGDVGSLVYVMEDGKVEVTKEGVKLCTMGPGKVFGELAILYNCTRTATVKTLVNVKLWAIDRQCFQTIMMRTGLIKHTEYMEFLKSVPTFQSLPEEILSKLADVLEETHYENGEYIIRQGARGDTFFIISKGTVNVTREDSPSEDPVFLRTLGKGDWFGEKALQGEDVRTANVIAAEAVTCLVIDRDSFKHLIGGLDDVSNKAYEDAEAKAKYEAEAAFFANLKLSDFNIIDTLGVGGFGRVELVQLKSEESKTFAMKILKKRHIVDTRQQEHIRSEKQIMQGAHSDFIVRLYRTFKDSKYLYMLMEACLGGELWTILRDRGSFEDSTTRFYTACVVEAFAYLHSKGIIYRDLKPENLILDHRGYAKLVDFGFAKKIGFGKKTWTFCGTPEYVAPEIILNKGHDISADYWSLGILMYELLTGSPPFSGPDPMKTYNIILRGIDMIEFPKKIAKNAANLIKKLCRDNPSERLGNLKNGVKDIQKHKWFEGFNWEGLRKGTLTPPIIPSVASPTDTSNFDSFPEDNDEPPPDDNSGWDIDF

[15] = tested on: Mus musculus; experiment: Antihypertensive activity in CD1 mouse assessed as decrease in mean arterial pressure at 10 to 20 mg/kg, po measured after 0.5 to 2 hrs; type: functional; settings: dose 10-20 mg/kg, time 0.5-2 hrs
[16] = Inhibition of ROCK in rat A7R5 cells assessed as increase in AKT phosphorylation measured after 30 mins by alphaLISA Surefire multiplex assay; type: cell-based; settings: A7R5, 0.5 h
[17] = biological target: LIM domain kinase 2 (Homo sapiens, UniProt P53671); experiment: Inhibition of wild-type human full length LIMK2 (M1 to P638 residues) expressed in bacterial expression system by Kinomescan method
Chain of LIM domain kinase 2 (P53671 whole entry, the tested form may be a part): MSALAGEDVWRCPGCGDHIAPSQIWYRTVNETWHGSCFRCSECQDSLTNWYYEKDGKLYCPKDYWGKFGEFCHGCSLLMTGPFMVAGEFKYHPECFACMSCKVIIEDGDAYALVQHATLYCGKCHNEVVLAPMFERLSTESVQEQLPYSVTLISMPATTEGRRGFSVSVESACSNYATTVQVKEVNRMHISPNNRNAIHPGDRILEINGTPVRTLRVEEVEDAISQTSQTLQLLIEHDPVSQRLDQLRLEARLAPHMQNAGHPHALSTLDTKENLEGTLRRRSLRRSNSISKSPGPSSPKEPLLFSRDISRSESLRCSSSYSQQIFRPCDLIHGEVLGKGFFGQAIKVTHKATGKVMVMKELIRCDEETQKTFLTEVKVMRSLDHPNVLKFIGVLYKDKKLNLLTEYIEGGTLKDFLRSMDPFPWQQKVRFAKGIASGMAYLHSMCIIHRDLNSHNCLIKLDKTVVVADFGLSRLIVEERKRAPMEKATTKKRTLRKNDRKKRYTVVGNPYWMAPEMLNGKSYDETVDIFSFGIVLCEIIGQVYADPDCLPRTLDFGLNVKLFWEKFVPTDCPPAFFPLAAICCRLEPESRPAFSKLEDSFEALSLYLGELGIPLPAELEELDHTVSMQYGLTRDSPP

[18] = tested on: Mus musculus; experiment: Antihypertensive activity in CD1 mouse assessed as decrease in systolic blood pressure at 10 to 20 mg/kg, po measured after 0.5 to 2 hrs; type: functional; settings: dose 10-20 mg/kg, time 0.5-2 hrs
[19] = Inhibition of ROCK in human PANC-1 cells assessed as decrease in MYPT1 phosphorylation at T850 residues measured after 1 hr by Western blot analysis; type: cell-based; settings: PANC-1, 1 h
[20] = tested on: Mus musculus; experiment: In vivo inhibition of ROCK in HTT zQ175DN Knock-in mouse assessed as reduction in MYPT1 phosphorylation in striatum at 10 mg/kg, po by MSD assay; type: functional, organism-based; settings: time 1-8 hrs, TDE = time-dependent effect
[21] = tested on: Mus musculus; experiment: In vivo inhibition of ROCK in po dosed HTT zQ175DN Knock-in mouse assessed as reduction in MYPT1 phosphorylation in striatum after 1 hr by MSD assay; type: functional, organism-based; settings: dose 1-20 mg/kg, DDE = dose-dependent effect
[22] = tested on: Mus musculus; experiment: Antihypertensive activity in CD1 mouse assessed as decrease in diastolic blood pressure at 10 to 20 mg/kg, po measured after 0.5 to 2 hrs; type: functional; settings: dose 10-20 mg/kg, time 0.5-2 hrs
[23] = tested on: Mus musculus; experiment: Antihypertensive activity in CD1 mouse assessed as decrease in body temperature at 10 to 20 mg/kg, po measured after 0.5 to 4 hrs; type: functional; settings: dose 10-20 mg/kg, time 0.5-4 hrs
[24] = tested on: Mus musculus; experiment: Antihypertensive activity in CD1 mouse assessed as decrease in heart rate pressure at 10 to 20 mg/kg, po measured after 0.5 to 2 hrs; settings: dose 10-20 mg/kg, time 0.5-2 hrs
[25] = Distribution coefficient, logD of compound by chromatographic method; type: physicochemical; settings: octanol/water
[26] = Lipophilicity, logP of compound; type: physicochemical; settings: octanol/water
[27] = biological target: RAC-alpha serine/threonine-protein kinase (Homo sapiens, UniProt P31749); experiment: Inhibition of AKT (unknown origin)
Chain of RAC-alpha serine/threonine-protein kinase (P31749 whole entry): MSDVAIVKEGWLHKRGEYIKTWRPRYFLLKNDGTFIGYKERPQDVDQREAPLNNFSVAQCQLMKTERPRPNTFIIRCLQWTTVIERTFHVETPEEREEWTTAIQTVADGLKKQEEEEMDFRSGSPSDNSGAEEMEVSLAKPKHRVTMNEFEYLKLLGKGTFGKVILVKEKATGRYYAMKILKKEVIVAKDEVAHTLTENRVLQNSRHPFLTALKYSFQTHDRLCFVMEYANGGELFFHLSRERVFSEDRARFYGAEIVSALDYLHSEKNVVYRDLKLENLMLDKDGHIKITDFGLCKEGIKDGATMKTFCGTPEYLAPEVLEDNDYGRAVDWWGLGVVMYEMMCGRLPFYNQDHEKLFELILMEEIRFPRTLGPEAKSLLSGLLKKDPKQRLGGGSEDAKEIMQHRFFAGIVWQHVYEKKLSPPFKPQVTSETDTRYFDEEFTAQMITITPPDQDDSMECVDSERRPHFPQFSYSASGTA

Row | SMILES | IC50 [5] [µM] | solubility kinetic at 2 h [7] [µM] | CLint scaled at 1 µM [8] [L/h/kg] | IC50 [9] [µM] | Papp at 1 h, 10 µM [11] [nm/s] | efflux ratio at 1 h, 10 µM [12] | IC50 [14] [µM] | chromatographic logD [25] | logP [26] | also measured
1 | COc1cccc([C@@H](C)NC(=O)N2CCN(c3ccnc(F)c3)C[C@H]2C)c1 | 0.122 | 170 (≈ 63.3 µg/mL) | 6.18 | 0.006 | 581 | 2.8 | 18.9 | – | – | clearance [1]: 1.7 L/h/kg; bioavailability [2]: 36%; hepatic extraction ratio [3]: 0.31; fAUC [4]: 30 nM·kg·h/mg; Ratio [6]: 0.2; fAUC [10]: 100 nM·kg·h/mg; IC50 [13]: > 10 µM
2 | COc1cccc([C@@H](C)NC(=O)c2ccc(-c3ccnc(F)c3)cc2)c1 | 0.077 | – | – | – | – | – | 0.017 | – | – | IC50 [27]: 2.37 µM
3 | COc1cccc([C@@H](C)NC(=O)N2CCN(c3ccncc3F)C[C@H]2C)c1F | 0.323 | 150 (≈ 58.6 µg/mL) | 4.74 | – | 797 | 1.3 | 50.9 | 2.3 | 2.6 | –
4 | COc1cccc([C@@H](C)NC(=O)c2ccc(-c3ccnc(F)c3)nc2)c1 | 0.29 | – | – | 0.026 | – | – | 0.32 | – | – | EC50 [16]: 3.21 µM; IC50 [27]: 9.26 µM; IC50 [19]: 1.87 µM

Compounds with a lower IC50 [5], results first:

Row | IC50 [5] [µM] | solubility kinetic at 2 h [7] [µM] | CLint scaled at 1 µM [8] [L/h/kg] | IC50 [9] [µM] | Papp at 1 h, 10 µM [11] [nm/s] | efflux ratio at 1 h, 10 µM [12] | IC50 [14] [µM] | chromatographic logD [25] | logP [26] | SMILES | also measured
5 | 0.015 | 140 (≈ 54.7 µg/mL) | < 3.9 | – | 984 | – | 1.7 | 2.4 | 2.7 | COc1cc(F)cc([C@@H](C)NC(=O)N2CCN(c3ccncc3F)C[C@H]2C)c1 | clearance [1]: 5.1 L/h/kg; bioavailability [2]: 78%; fAUC [4]: 40 nM·kg·h/mg; fAUC [10]: 30 nM·kg·h/mg; IC50 [13]: 1.1 µM
6 | 0.014 | > 200 | 10.1 | 0.002 | 1040 | 3.7 | 6.65 | 1.6 | 2.1 | C[C@@H]1CN(c2ccncc2F)CCN1C(=O)N[C@H](C)c1cccn2nccc12 | –
7 | 0.008 | – | – | 0.003 | – | – | 2.25 | – | – | COc1cccc([C@@H](C)NC(=O)N2CCN(c3ccncc3F)C[C@H]2C)c1 | Activity [15]: 61 mmHg; EC50 [16]: 0.028 µM; IC50 [17]: 0.025 µM; Activity [18]: 59.5 mmHg; IC50 [19]: 0.014 µM; inhibition [20]: Tde; inhibition [21]: Dde; Activity [22]: 56.4 mmHg; T [23]: 2.5 °C; Activity [24]: 107 bpm

From ChEMBL document CHEMBL5131572, “Identification of a Potent, Selective, and Brain-Penetrant Rho Kinase Inhibitor and its Activity in a Mouse Model of Huntington's Disease” (J Med Chem, 2022)
